In the supplement of paper PMC12406974:

What was measured:
Assay in all cases: maximum observed lethal fraction; higher = more cell death
[1] = test system: U2OS BCL2L12-KO
[2] = test system: U2OS PTBP1-KO
[3] = test system: U2OS
[4] = test system: U2OS BAX/BAK1 DKO
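Note: FLICK assay: SYTOX Green fluorescence of dead cells tracked over time after drugging in 96-well plates, with total cell counts taken from Triton X-100 lysed wells.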

SMILES | maximum observed lethal fraction ([1]; 0.0316 µM) | maximum observed lethal fraction ([1]; 0.1 µM) | maximum observed lethal fraction ([1]; 0.316 µM) | maximum observed lethal fraction ([1]; 1 µM) | maximum observed lethal fraction ([1]; 3.16 µM) | maximum observed lethal fraction ([1]; 10 µM) | maximum observed lethal fraction ([1]; 31.6 µM) | maximum observed lethal fraction ([2]; 0.0316 µM) | maximum observed lethal fraction ([2]; 0.1 µM) | maximum observed lethal fraction ([2]; 0.316 µM) | maximum observed lethal fraction ([2]; 1 µM) | maximum observed lethal fraction ([2]; 3.16 µM) | maximum observed lethal fraction ([2]; 10 µM) | maximum observed lethal fraction ([2]; 31.6 µM) | maximum observed lethal fraction ([3]; 0.0316 µM) | maximum observed lethal fraction ([3]; 0.1 µM) | maximum observed lethal fraction ([3]; 0.316 µM) | maximum observed lethal fraction ([3]; 1 µM) | maximum observed lethal fraction ([3]; 3.16 µM) | maximum observed lethal fraction ([3]; 10 µM) | maximum observed lethal fraction ([3]; 31.6 µM) | maximum observed lethal fraction ([4]; 0.0316 µM) | maximum observed lethal fraction ([4]; 0.1 µM) | maximum observed lethal fraction ([4]; 0.316 µM) | maximum observed lethal fraction ([4]; 1 µM) | maximum observed lethal fraction ([4]; 3.16 µM) | maximum observed lethal fraction ([4]; 10 µM) | maximum observed lethal fraction ([4]; 31.6 µM) | maximum observed lethal fraction ([1]; 0.01 µM) | maximum observed lethal fraction ([2]; 0.01 µM) | maximum observed lethal fraction ([3]; 0.01 µM) | maximum observed lethal fraction ([4]; 0.01 µM)
Cc1cc(Nc2ccc(NC(=O)c3ccc(Nc4ccnc5ccccc45)cc3)cc2)nc(N)n1 [SGI-1027] | 0.0572 | 0.0566 | 0.0604 | 0.902 | 1 | 0.984 | 0.888 | 0.0577 | 0.0687 | 0.0612 | 0.208 | 0.977 | 1 | 0.886 | 0.0565 | 0.0566 | 0.0644 | 0.414 | 0.997 | 1 | 0.875 | 0.0581 | 0.0592 | 0.0626 | 0.104 | 0.964 | 1 | 0.883 |  |  |  | 
COC(=O)C[C@](O)(CCCC(C)(C)O)C(=O)O[C@@H]1C(OC)=C[C@]23CCCN2CCc2cc4c(cc2[C@H]13)OCO4 [Homoharringtonine] | 0.0909 | 0.0937 | 0.102 | 0.0962 | 0.115 | 0.21 |  | 0.165 | 0.0974 | 0.109 | 0.186 | 0.184 | 0.197 |  | 0.0942 | 0.296 | 0.395 | 0.578 | 0.692 | 0.722 |  | 0.099 | 0.0992 | 0.106 | 0.112 | 0.102 | 0.106 |  | 0.0701 | 0.0765 | 0.0607 | 0.0663
COc1cc([C@@H]2c3cc4c(cc3[C@@H](O[C@@H]3O[C@@H]5CO[C@@H](C)O[C@H]5[C@H](O)[C@H]3O)[C@H]3COC(=O)[C@H]23)OCO4)cc(OC)c1O [Etoposide] | 0.0627 | 0.0728 | 0.083 | 0.0936 | 0.0967 | 0.341 | 0.629 | 0.0736 | 0.0782 | 0.0848 | 0.0897 | 0.0981 | 0.384 | 0.649 | 0.0568 | 0.0636 | 0.0687 | 0.0712 | 0.0784 | 0.31 | 0.601 | 0.055 | 0.0596 | 0.0706 | 0.0746 | 0.0695 | 0.0871 | 0.0793 |  |  |  | 
Nc1cc(C(F)(F)F)c(-c2cc(N3CCOCC3)nc(N3CCOCC3)n2)cn1 [Buparlisib] | 0.0818 | 0.0866 | 0.0955 | 0.176 | 0.287 | 0.349 | 0.374 | 0.0937 | 0.0916 | 0.0993 | 0.125 | 0.231 | 0.304 | 0.326 | 0.0663 | 0.0713 | 0.0748 | 0.109 | 0.275 | 0.463 | 0.513 | 0.0655 | 0.0661 | 0.0716 | 0.091 | 0.0979 | 0.11 | 0.116 |  |  |  | 
